# From the RepoRT retention time repository
# Structures can show the parent of a compound that is named as a salt.
# Assay: RP, Restek Raptor Biphenyl, 100 × 2.1 mm, 2.7 µm, 50 °C, 0.4 mL/min, estimated dead time 0.55 min; A: water + 0.1% formic acid, pH 3; B: methanol + 0.1% formic acid, pH 3; gradient (min/%B) 0/5 1.12/5 6.41/99.5 10.01/99.5
# Settings: stereoisomer not certain
row,LC retention time,SMILES
1,0.724 min,NCCc1ccc(O)c(O)c1 [DOPAMINE]
2,0.702 min,Cc1cn(C2CC(O)C(COP(=O)(O)OP(=O)(O)OC3OC(CO)C(O)C(O)C3O)O2)c(=O)[nH]c1=O [DTDP-D-GLUCOSE]
3,6.13 min,CC(CCC(=O)O)C1CCC2C3C(=O)CC4CC(=O)CCC4(C)C3CC(=O)C12C (centres undefined) [Dehydrocholic acid]
4,6.37 min,CC(CCC(=O)O)C1CCC2C3CCC4CC(O)CCC4(C)C3CC(O)C12C (centres undefined) [Deoxycholic acid]
5,5.22 min,CN(C)C(=O)Nc1ccc(Cl)c(Cl)c1 [Diuron]
6,4.07 min,Cc1cc2nc3c(=O)[nH]c(=O)nc-3n(CC(O)C(O)C(O)COP(=O)(O)OP(=O)(O)OCC3OC(n4cnc5c(N)ncnc54)C(O)C3O)c2cc1C (centres undefined) [FAD]
7,3.67 min,Nc1nc2ncc(CNc3ccc(C(=O)NC(CCC(=O)O)C(=O)O)cc3)nc2c(=O)[nH]1 (centres undefined) [FOLATE]
8,1.15 min,Nc1nc2c(ncn2C2OC(CO)C(O)C2O)c(=O)[nH]1 (centres undefined) [GUANOSINE]
9,6.16 min,CC(CCC(=O)NCC(=O)O)C1CCC2C3CCC4CC(O)CCC4(C)C3CC(O)C12C (centres undefined) [Glycodeoxycholic acid]
10,5.79 min,CC(CCC(=O)NCC(=O)O)C1CCC2C3CC(O)C4CC(O)CCC4(C)C3CCC12C (centres undefined) [Glycohyodeoxycholic acid]
11,6.37 min,CC(CCC(=O)NCC(=O)O)C1CCC2C3CCC4CC(O)CCC4(C)C3CCC12C (centres undefined) [Glycolithocholic acid]
12,3.44 min,O=C(O)CNC(=O)c1ccccc1 [HIPPURATE]
13,1.47 min,O=C(O)Cc1cc(O)ccc1O [HOMOGENTISATE]
14,2.46 min,COc1cc(CC(=O)O)ccc1O [HOMOVANILLATE]
15,6.42 min,COC(=O)c1c(Cl)nn(C)c1S(=O)(=O)NC(=O)Nc1nc(OC)cc(OC)n1 [Halosulfuron-methyl]
16,3.75 min,NC(=O)Cc1c[nH]c2ccccc12 [INDOLE-3-ACETAMIDE]
17,4.06 min,OCCc1c[nH]c2ccccc12 [INDOLE-3-ETHANOL]
18,2.52 min,O=S(=O)(O)Oc1c[nH]c2ccccc12 [INDOXYL SULFATE]
19,4.97 min,O=C(O)CCCc1c[nH]c2ccccc12 [Indole-3-butyric acid]
20,4.08 min,O=C(O)c1c[nH]c2ccccc12 [Indole-3-carboxylic acid]
21,4.66 min,O=C(O)CCc1c[nH]c2ccccc12 [Indole-3-propionic acid]
22,3.58 min,O=C(O)c1cc(=O)c2ccccc2[nH]1 [Kynurenic acid]
23,3.46 min,O=C1O[C@H]([C@@H](O)CO)C(O)=C1O [L-Ascorbic acid]
24,0.702 min,N[C@@H](Cc1ccc(O)c(O)c1)C(=O)O [L-DOPA]
25,0.676 min,O=C(O)CC(O)C(=O)O (centres undefined) [MALATE]
26,2.98 min,O=C(O)C(O)c1ccccc1 (centres undefined) [MANDELATE]
27,4.57 min,COc1ccc2[nH]cc(CCNC(C)=O)c2c1 [MELATONIN]
28,3.18 min,CSCC1OC(n2cnc3c(N)ncnc32)C(O)C1O (centres undefined) [METHYLTHIOADENOSINE]
29,6.04 min,COC(=O)c1ccc(CNS(C)(=O)=O)cc1S(=O)(=O)NC(=O)Nc1nc(OC)cc(OC)n1 [Mesosulfuron-methyl]
30,0.96 min,CC(C(=O)O)C(=O)O [Methylmalonic acid]

# Second part, the compound before the results:
row,SMILES,LC retention time
1,O=C(Nc1ccc(F)cc1F)c1cccnc1Oc1cccc(C(F)(F)F)c1 [Diflufenican],6.33 min
2,CC(C)(C)C(O)C(=Cc1ccc(Cl)cc1Cl)n1cncn1 (centres undefined) [Diniconazole],6.05 min
3,CNC(=N[N+](=O)[O-])NCC1CCOC1 (centres undefined) [Dinotefuran],3.16 min
4,CCCCCCCCC=CCCCCCCCCCCCC(=O)O [Erucic acid],6.84 min
5,CC1(c2ccc(Oc3ccccc3)cc2)OC(=O)N(Nc2ccccc2)C1=O (centres undefined) [Famoxadone],6.68 min
6,OC(c1ccc(Cl)cc1)(c1cncnc1)c1ccccc1Cl (centres undefined) [Fenarimol],6.02 min
7,CC1(C(=O)Nc2ccc(O)c(Cl)c2Cl)CCCCC1 [Fenhexamid],5.83 min
8,N#Cc1nn(-c2c(Cl)cc(C(F)(F)F)cc2Cl)c(N)c1S(=O)C(F)(F)F (centres undefined) [Fipronil],5.6 min
9,N#CCNC(=O)c1cnccc1C(F)(F)F [Flonicamid],3.4 min
10,O=[N+]([O-])c1cc(C(F)(F)F)c(Cl)c([N+](=O)[O-])c1Nc1ncc(C(F)(F)F)cc1Cl [Fluazinam],6.33 min
11,Cc1cc(C(F)(C(F)(F)F)C(F)(F)F)ccc1NC(=O)c1cccc(I)c1C(=O)NC(C)(C)CS(C)(=O)=O [Flubendiamide],5.97 min
12,N#Cc1c[nH]cc1-c1cccc2c1OC(F)(F)O2 [Fludioxonil],5.51 min
13,Cc1ccn2nc(S(=O)(=O)Nc3c(F)cccc3F)nc2n1 [Flumetsulam],4.92 min
14,CN(C)C(=O)Nc1cccc(C(F)(F)F)c1 [Fluometuron],4.92 min
15,COc1cc(OC)nc(NC(=O)NS(=O)(=O)c2cc(NC=O)ccc2C(=O)N(C)C)n1 [Foramsulfron],5.76 min
16,O=C(Nc1ccccc1)Nc1ccnc(Cl)c1 [Forchlorfenuron],5.17 min
17,O=C(O)CCCC(=O)O [Glutaric acid],1.37 min

row,SMILES,LC retention time
1,CC(C)(C)N(NC(=O)c1ccc(Cl)cc1)C(=O)c1ccccc1 [Halofenozide],5.6 min
2,CCCCCCCCCCCCCCCCCCCCC(=O)O [Heneicosanoic acid],6.82 min
3,CCCCCCCCCCCCCCCCCCCCCCCCCCC(=O)O [Heptacosanoic Acid],7.05 min
4,CCCCCCCCCCCCCCCCC(=O)O [Heptadecanoic acid],6.6 min
5,CCCCC(O)(Cn1cncn1)c1ccc(Cl)cc1Cl (centres undefined) [Hexaconazole],5.98 min
6,O=Cc1c[nH]c2ccccc12 [Indole-3-carboxaldehyde],4.24 min
7,CC(C)C1CCC(Cc2ccc(Cl)cc2)C1(O)Cn1cncn1 (centres undefined) [Ipconazole],6.21 min
8,CC(C)CCCCCCCCCCCCC(=O)O [Isopalmitic acid],6.54 min
9,CC(C)CCCCCCCCCCCCCCC(=O)O [Isostearic acid],6.67 min
10,O=C(O)CC[C@H](O)C(=O)O [L-α-Hydroxyglutaric acid disodium salt],0.746 min
11,CCCCCCCCCCCC(=O)OC(CC(=O)[O-])C[N+](C)(C)C [Lauroyl-L-carnitine],5.46 min
12,O=c1[nH]c2c(c(=O)n1C1CCCCC1)CCC2 [Lenacil],5.48 min
13,CCC=CCC=CCC=CCCCCCCCC(=O)O [Linolenic acid],6.53 min
14,Cc1c(=O)c(=O)c2c3c[nH]c4c(C)c(=O)c(=O)c(c5c[nH]c1c52)c43 [MELANIN],5.67 min
15,CCCCCCCCCCCCCCCCCCCCCCCCCCCCCC(=O)O [Melissic acid],7.12 min
16,CC1(C)CCC(Cc2ccc(Cl)cc2)C1(O)Cn1cncn1 (centres undefined) [Metconazole],6.09 min
17,CCCCCCCCCCCCCC(=O)OC(CC(=O)[O-])C[N+](C)(C)C [Myristoyl-L-carnitine],5.74 min
